From the NIST ThermoML archive (doi:10.1016/j.jct.2008.12.018)
Numbers after ± are expanded uncertainties.

Assay: activity coefficient (dimensionless); of the first substance listed, at infinite dilution; xn = mol fraction of the nth substance listed
Details: Liquid, Chromatography, x1 = 0

activity coefficient (328.15 K): 0.316 ± 0.035
activity coefficient (338.15 K): 0.316 ± 0.035
activity coefficient (348.15 K): 0.32 ± 0.035
activity coefficient (358.15 K): 0.323 ± 0.035
activity coefficient (368.15 K): 0.325 ± 0.035
Structure (SMILES): O [water] + CCCCn1cc[n+](C)c1.N#C[S-]
